From PubChem BioAssay (NCI)
Where “and” joins values, the source holds several entries; their conditions need not be identical. Identical values can stand only once.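 Test compounds were applied to cells in 96-well plates for 48 hours at 5 doses. GI50: concentration for 50% inhibition of growth. At the TGI there is no net growth.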

What was measured:
Assay in all cases: NCI anticancer screen, dose series, 48 h
[1] = tested on: K-562 leukemia
[2] = tested on: PC-3 prostate
[3] = tested on: NCI-H522 lung
[4] = tested on: T-47D breast
[5] = tested on: SNB-75 CNS
[6] = tested on: COLO 205 colon
[7] = tested on: HCT-15 colon
[8] = tested on: A498 renal
[9] = tested on: MDA-MB-231 breast
[10] = tested on: SK-MEL-2 melanoma

Compound | GI50 [1] | TGI [1] | GI50 [2] | TGI [2] | GI50 [3] | TGI [3] | GI50 [4] | TGI [4] | GI50 [5] | TGI [5] | GI50 [6] | TGI [6] | GI50 [7] | TGI [7] | GI50 [8] | TGI [8] | GI50 [9] | TGI [9] | GI50 [10] | TGI [10]
C=CC(=O)N1CCC(c2ccc(C(N)=O)c(-c3ccc(Oc4ccccc4)cc3)n2)CC1 | 26.9 µM | > 100 µM | 29.5 µM | > 100 µM | 11.2 µM | 60.3 µM | 16.1 µM | 95.7 µM | 17 µM | > 100 µM | 42 µM | > 100 µM | 25.2 µM | > 100 µM | 12.8 µM | 50.1 µM | 39 µM | > 100 µM | 27.1 µM | > 100 µM
O=C(CCN1CCCC1)Nc1ccc2c(NCc3ccccc3)c3ccccc3nc2c1 | 0.385 µM | 1.41 µM | 0.442 µM | 2.03 µM | 0.298 µM | 1.34 µM | 0.562 µM | 2.89 µM | 0.398 µM | 1.7 µM | 0.319 µM | 1.36 µM | 1.86 µM | 6.97 µM | 0.406 µM | 1.9 µM | 0.377 µM | 1.59 µM | 0.598 µM | 2.08 µM
CC1=CC2C(C(O)CC3(C)C2CC(C)C32OCOC23COCO3)C2(C)C/C(=C/O)C(=O)C=C12 (centres undefined) | 2.09 µM | 5.73 µM | 1.71 µM | 4.4 µM | 1.79 µM | 3.47 µM | 2.33 µM | 5.73 µM | 1.63 µM | 3.03 µM | 1.97 µM | 3.47 µM | 1.97 µM | 5.07 µM | 2.83 µM | 14.8 µM | 1.75 µM | 3.49 µM | 1.97 µM | 3.8 µM
C#C[C@]1(O)CC[C@H]2[C@@H]3CC=C4c5sc(Nc6cc(F)ccc6F)nc5CC[C@]4(C)[C@H]3CC[C@@]21C | 1.96 µM | > 100 µM | 1.34 µM | 10.3 µM | 2.08 µM | 5.6 µM | 2.49 µM | 7.69 µM | 0.736 µM | 2.18 µM | 2.05 µM | 4.81 µM | 1.53 µM | 4.84 µM | 1.37 µM | 2.76 µM | 1.82 µM | 4.09 µM | 1.59 µM | 4.14 µM
COc1ccc([C@H](CC(=O)O)N2CCN(CCCc3ccc4c(n3)NCCC4)C2=O)cn1 | > 80.8 µM | > 100 µM | > 100 µM | > 100 µM | 0.114 µM | 0.267 µM | 0.382 µM | 4.65 µM | 0.0112 µM | 0.0278 µM | > 100 µM | > 100 µM | 0.311 µM | – | 0.0116 µM | 0.0633 µM | 0.254 µM | – | 0.0331 µM | 0.237 µM
OC1(c2ccccc2)C2CC=CC2C1(c1ccccc1)c1ccccc1 (centres undefined) | – | > 100 µM | – | > 100 µM | – | 32.7 µM | – | > 100 µM | – | > 100 µM | – | 44.6 µM | – | > 100 µM | – | 57 µM | – | > 100 µM | – | 27.5 µM
COC(=O)c1cc(-c2ccccc2)[nH]c1N/N=C/c1c(Cl)cccc1Cl | 0.729 µM | > 100 µM | 0.41 µM | – | 0.26 µM | – | 0.418 µM | 7.36 µM | 0.215 µM | 2.43 µM | 0.301 µM | > 40.1 µM | 0.308 µM | > 36 µM | 0.198 µM | 0.704 µM | 0.474 µM | 6.85 µM | 0.615 µM | 17.2 µM
COc1ccc(/C=C(/c2ccccc2)[N+](=O)[O-])c(OC)c1 | 0.494 µM | 38.2 µM | 1.32 µM | 2.79 µM | 1.56 µM | 4.02 µM | 0.668 µM | 4.21 µM | 0.363 µM | 1.84 µM | 2.04 µM | 4.28 µM | 0.576 µM | 2.13 µM | 1.55 µM | 2.99 µM | 2 µM | 4.16 µM | 1.91 µM | 5.28 µM
NC(=N\N=C/c1ccc(O)cc1)/C(N)=N\N=C/c1ccc(O)cc1 | 0.782 µM | > 100 µM | > 29 µM | > 100 µM | 0.52 µM | > 100 µM | 13.6 µM | > 100 µM | 17.3 µM | 43.3 µM | > 93.5 µM | > 100 µM | – | > 100 µM | > 100 µM | > 100 µM | 10.7 µM | > 100 µM | > 79 µM | > 100 µM
O=C(O)C(Cc1cnc[nH]1)N1C(=O)c2ccccc2C1=O (centres undefined) | – | > 100 µM | – | > 100 µM | – | > 100 µM | – | > 100 µM | – | > 100 µM | – | > 100 µM | – | > 100 µM | – | > 100 µM | – | > 100 µM | – | > 100 µM
O=C1NC(N/N=C\C(O)C(O)C(O)C(O)CO)=N/C1=C/c1ccccc1 (centres undefined) | 67.6 µM and 33.8 µM and 28.8 µM | > 100 µM | 47.5 µM and 14.5 µM and > 100 µM | > 100 µM and 28 µM | 96.5 µM and 18.6 µM and > 100 µM | > 100 µM and 40.5 µM | – | > 100 µM and 26.7 µM | > 100 µM and 24.9 µM | > 100 µM and 54 µM | > 100 µM and 19.3 µM | > 100 µM and 41.6 µM | 51.9 µM and 12.7 µM and > 100 µM | > 100 µM and 33.8 µM | 45.2 µM and 15.8 µM and > 100 µM | > 100 µM and 39.5 µM | 51.7 µM and 15.4 µM and > 100 µM | > 100 µM and 33.4 µM | > 100 µM and 16.6 µM | > 100 µM and 32.7 µM
COc1cc2c3c(n(CCCN)c(=O)c2cc1OC)-c1ccc([N+](=O)[O-])cc1C3=O | 5.57 µM | 31.3 µM | 7.63 µM | 22.9 µM | 0.489 µM | 10.8 µM | 3.86 µM | 20.2 µM | 16.3 µM | 34.7 µM | 10.1 µM | 22.8 µM | 5.83 µM | 19 µM | 17.4 µM | 34.1 µM | 18.9 µM | 34.6 µM | 0.0173 µM | 5.19 µM
COc1ccccc1/C=C1\COc2ccc(-c3ccccc3)cc2C1=O | 4.54 µM | > 100 µM | 4.28 µM | > 100 µM | 3.1 µM | > 100 µM | 2.83 µM | > 100 µM | 2.46 µM | 6.97 µM | 3.57 µM | 13 µM | 2.64 µM | 13.1 µM | 2.53 µM | 6.43 µM | 3.66 µM | 17.7 µM | 3.82 µM | 22.1 µM
